Here are results for five molecules from patent US20150105252A1, “SUBSTITUTED PYRAZOLES AS HERBICIDES” (E I DU PONT DE NEMOURS AND COMPANY, priority 2013, published 2015).

What all share (assay): Test F preemergence
Experiment [1] concerns pigweed, palmer. The experiment is classed as in vivo, Amaranthus palmeri. The text has this: (§1) Seeds of plant species selected from corn (Zea mays), soybean (Glycine max), velvetleaf (Abutilon theophrasti), lambsquarters (Chenopodium album), wild poinsettia (Euphorbia heterophylla), pigweed, palmer (palmer pigweed, Amaranthus palmeri), common waterhemp (Amaranthus rudis), surinam grass (Brachiaria decumbens), large crabgrass (Digitaria sanguinalis), crabgrass, Brazil (Brazilian crabgrass, Digitaria horizontalis), fall panicum (Panicum dichotomiflorum), giant foxtail (Setaria faberii), green foxtail (Setaria viridis), goosegrass (Eleusine indica), johnsongrass (Sorghum halepense), common ragweed (Ambrosia elation), barnyardgrass (Echinochloa crus-galli), southern sandbur (Cenchrus echinatus), arrowleaf sida (Sida rhombifolia), Italian ryegrass (Lolium multiflorum), dayflower, VA (Virginia (VA) dayflower, Commelina virginica), field bindweed (Convolvulus arvensis), cocklebur (common cocklebur, Xanthium strumarium), morningglory (Ipomoea coccinea), nightshade (eastern black nightshade, Solanum ptycanthum), kochia (Kochia scoparia), yellow nutsedge (Cyperus esculentus), and hairy beggarticks (Bidens pilosa), were planted into a silt loam soil and treated preemergence with test chemicals formulated in a non-phytotoxic solvent mixture which included a surfactant.
(§2) At the same time, plants from these crop and weed species and also horseweed (Canada horseweed, Conyza canadensis), smartweed (ladysthumb smartweed, Polygonum persicaria), waterhemp_RES1, (ALS & Triazine resistant common waterhemp, Amaranthus rudis), and waterhemp_RES2, (ALS & HPPD resistant common waterhemp, Amaranthus rudis) were treated with postemergence applications of test chemicals formulated in the same manner. Plants ranged in height from 2 to 18 cm for postemergence treatments (1- to 4-leaf stage). Treated plants and controls were maintained in a greenhouse for 14 to 21 days, after which time all species were compared to controls and visually evaluated. Plant response ratings, summarized in Table F, are based on a scale of 0 to 100 where 0 is no effect and 100 is complete control. A dash (-) response means no test result.

Experiment [2] relates to velvetleaf. It counts as in vivo, Abutilon theophrasti.
Excerpt: as §1, §2

The test system of experiment [3] is wild poinsettia. The experiment is classed as in vivo, Euphorbia heterophylla.
Excerpt: as §1, §2

Experiment [4] has as its system fall panicum. The experiment is classed as in vivo, Panicum dichotomiflorum.
Excerpt: as §1, §2

Setting [5] is: Preemergence, 31 g ai/ha, scale 0 to 100.
Where [6] appears, read: Preemergence, 62 g ai/ha, scale 0 to 100.
Where [7] appears, read: Preemergence, 125 g ai/ha, scale 0 to 100.
The mark [8] stands for this setting: preemergence, 8 g ai/ha, scale 0 to 100, 100 is complete control.
Where [9] appears, read: preemergence, 16 g ai/ha, scale 0 to 100, 100 is complete control.
[10] abbreviates: preemergence, scale 0 to 100, 100 is complete control.
Where [11] appears, read: Preemergence, 16 g ai/ha, scale 0 to 100.
[12] abbreviates: Preemergence, 250 g ai/ha, scale 0 to 100.

With `CCOc1cc(C(=O)NCC(F)(F)F)nn1Cc1ccnc(C(F)(F)F)c1` [Compound 104], the “Plant response rating, Pigweed, Palmer” value in experiment [1] (setting [5]) came out at 50; in experiment [1] (setting [6]), 50; in experiment [1] (setting [7]), 100; in experiment [1] (setting [8]), 0; in experiment [1] (setting [9]), 0. Further, the “Plant response rating, Velvetleaf” value in experiment [2] (setting [5]) worked out at 50; in experiment [2] (setting [6]), 95; in experiment [2] (setting [7]), 100; in experiment [2] (setting [8]) it was 0; in experiment [2] (setting [9]) it was 0. For the same molecule, the “Plant response rating, Wild Poinsettia” value was 15 in experiment [3] (setting [5]); 80 in experiment [3] (setting [6]); 98 in experiment [3] (setting [7]); 0 in experiment [3] (setting [8]); 10 in experiment [3] (setting [9]). The “Plant response rating, Fall Panicum” value in experiment [4] (setting [5]) was determined as 90; in experiment [4] (setting [6]), 100; in experiment [4] (setting [7]), 100; in experiment [4] (setting [8]) it was 15; in experiment [4] (setting [9]), 85.

Regarding `CCNC(=O)c1cc(CCCl)n(Cc2ccnc(C(F)(F)F)c2)n1` [Compound 179], the “Plant response rating, Pigweed, Palmer” value in experiment [1] (setting [5]) came out at 0; in experiment [1] (setting [6]) it was 35; in experiment [1] (setting [7]), 100; in experiment [1] (setting [8]), 0. The “Plant response rating, Velvetleaf” value in experiment [2] (setting [5]) was determined as 0; in experiment [2] (setting [6]), 20; in experiment [2] (setting [7]), 40; in experiment [2] (setting [8]), 0. In addition, the “Plant response rating, Wild Poinsettia” value is recorded as 5 in experiment [3] (setting [5]), 40 in experiment [3] (setting [6]), 50 in experiment [3] (setting [7]) and 0 in experiment [3] (setting [8]). Besides, the “Plant response rating, Fall Panicum” value in experiment [4] (setting [5]) amounted to 35; in experiment [4] (setting [6]), 70; in experiment [4] (setting [7]) it was 98; in experiment [4] (setting [8]), 0.

On to `CCNC(=O)c1cc(CC)n(Cc2ccnc(C(F)(F)F)c2)n1` [Compound 196], for which the “Plant response rating, Pigweed, Palmer” value is 100 in experiment [1] (setting [6]), 100 in experiment [1] (setting [7]), 0 in experiment [1] (setting [8]) and 0 in experiment [1] (setting [9]). Besides, the “Plant response rating, Velvetleaf” value in experiment [2] (setting [6]) is 20; in experiment [2] (setting [7]) it was 35; in experiment [2] (setting [8]), 0; in experiment [2] (setting [9]) it was 0; in experiment [2] (setting [10]), 0. For the same molecule, the “Plant response rating, Wild Poinsettia” value is recorded as 35 in experiment [3] (setting [6]), 65 in experiment [3] (setting [7]), 0 in experiment [3] (setting [8]) and 5 in experiment [3] (setting [9]). Moreover, the “Plant response rating, Fall Panicum” value in experiment [4] (setting [11]) stood at 90; in experiment [4] (setting [6]), 98; in experiment [4] (setting [7]) it was 100; in experiment [4] (setting [8]) it was 0; in experiment [4] (setting [9]) it was 0.

Take `Cc1cc(C(=O)NC(C)C)nn1Cc1ccnc(C(F)(F)F)c1` [Compound 197]: the “Plant response rating, Pigweed, Palmer” value in experiment [1] (setting [6]) is listed as 95; in experiment [1] (setting [7]), 90; in experiment [1] (setting [8]), 10; in experiment [1] (setting [9]), 35. For the same molecule, the “Plant response rating, Velvetleaf” value turned out to be 15 in experiment [2] (setting [6]); 25 in experiment [2] (setting [7]); 0 in experiment [2] (setting [8]); 0 in experiment [2] (setting [9]); 0 in experiment [2] (setting [10]). Further, the “Plant response rating, Wild Poinsettia” value was 35 in experiment [3] (setting [6]), 60 in experiment [3] (setting [7]), 5 in experiment [3] (setting [8]) and 0 in experiment [3] (setting [9]). Also, the “Plant response rating, Fall Panicum” value in experiment [4] (setting [11]) worked out at 0; in experiment [4] (setting [6]), 70; in experiment [4] (setting [7]) it was 98; in experiment [4] (setting [8]), 0; in experiment [4] (setting [9]), 0.

In the case of `CCc1cc(C(=O)NC2CC2)nn1Cc1ccnc(OCC(F)(F)F)c1` [Compound 200], the “Plant response rating, Pigweed, Palmer” value in experiment [1] (setting [12]) was determined as 85; in experiment [1] (setting [6]), 0; in experiment [1] (setting [7]), 95; in experiment [1] (setting [9]), 0. For the same molecule, the “Plant response rating, Velvetleaf” value in experiment [2] (setting [12]) stood at 85; in experiment [2] (setting [6]), 20; in experiment [2] (setting [7]), 80; in experiment [2] (setting [9]), 0; in experiment [2] (setting [10]), 0. Besides, the “Plant response rating, Wild Poinsettia” value in experiment [3] (setting [12]) came out at 35; in experiment [3] (setting [6]), 15; in experiment [3] (setting [7]), 20; in experiment [3] (setting [9]) it was 0. Further, the “Plant response rating, Fall Panicum” value in experiment [4] (setting [12]) was 90; in experiment [4] (setting [11]) it was 0; in experiment [4] (setting [6]), 35; in experiment [4] (setting [7]) it was 80; in experiment [4] (setting [9]) it was 0.
